{"source": "patent US10130670B2", "about": "“Composition for treating or preventing inflammatory skin disease, comprising, as active ingredient, immature citrus fruit extract, or synephrine or salt thereof” (BIO SPERCTRUM, INC., priority 2013, dated 2018)", "key": {"STAT6 [1]": {"system": "STAT6", "experiment": "translocation of STAT6 into the nucleus, confocal microscopy", "format": "cell-based", "settings": "200 μM synephrine for 60 minutes, then 50 ng/ml IL-4 for 24 hours; NIH/3T3", "method": "Human normal fibroblast (human normal fibroblast, NIH/3T3, department of dermatology in Aju University) was inoculated into 24-well microplate with DMEM media so as to be about 2×10^5 cells per well, and cultured in 5% concentration of CO2 cultivator under the condition of 37° C. for 24 hours. And then, it was treated with 200 μM of synephrine for 60 minutes, respectively and then was treated with 50 ng/ml of IL-4 to cultivate for 24 hours. And then, the cells was immobilized with paraformaldehyde (PFA) and treated with the primary antibody specifically reacting with STAT6. […] The results are represented in FIG. 5."}, "human skin": {"system": "human skin", "experiment": "accumulated patch test for safety to the human skin", "format": "in vivo", "settings": "for Mean reaction degree: 30 adults, 9 patches, less than 3 = safe", "method": "In order to identify as to whether the unripe Citrus unshiu fruit extract or synephrine isolated from the unripe Citrus unshiu fruit is safe or not, the skin external preparation based on squalene wherein 1, 10 and 100 ppm of the unripe Citrus unshiu fruit extract prepared in Example 1 were added, was prepared, and the skin external preparation wherein 10, 150 and 300 ppm of synephrine of Example 2 were added, were prepared, respectively.\nThen, the skin external preparations were applied as a patch to areas of humerus of 30 adults for accumulated 24 hours on alternate day in total 9 times to test as to whether synephrine stimulates the skin. The control used the skin external preparation based on squalene wherein the unripe Citrus unshiu fruit extract or synephrine was not comprised.\nThe patch used Finn chamber (Epitest Ltd, Filand) and the patch was practiced after dropping with 15 μl of the skin external preparations prepared from the above, respectively. The degree of the reaction represented on the skin in every time was scored by using the below experimental formula 1. Mean reaction degree=[{(reaction index×reaction degree)/(total number of the subject×the highest score (four point))}×100]/times of the test [Experimental Formula 1]\nAt this time, in the reaction degree, ± represents 1 score (point), + represents 2 score and ++ represents 4 score,\nWhen the mean reaction degree is less than 3, it is considered as being the safe composition."}, "[2]": {"system": "children of atopy patients", "experiment": "effect for improving atopy of cream, EASI score", "format": "in vivo, human", "settings": "for EASI score (5 = no improvement, 0 = many improvements): cream 0.03 or 0.01% by weight, twice per day, 30 children", "method": "Creams comprising the unripe Citrus unshiu fruit extract or synephrine isolated from it, having the ingredients and contents shown in below Table 2 were prepared. Specifically, aqueous phase, the purified water, triethanolamine and propylene glycol were heated to 70° C. to dissolve them, and then to it added the liquid in which oil phase, fatty acid, oily component, emulsifier and preservative were heated to 70° C. to dissolve them and stirred with homomixer (Tokushu Kika Ltd., Japan) to emulsify them. After the emulsifying them was completed, the said solution was cooled to 45° C., 0.03% by weight or 0.01% by weight of the unripe Citrus unshiu fruit extract or synephrine based on the total weight of the composition was added, dispersed and then cooled to 30° C.\nCream comprising 0.03 or 0.01% by weight of the unripe Citrus unshiu fruit extract or synephrine isolated from it, prepared according to the method of 10-1 as above was used for 30 children of atopy patients twice per day for 4 weeks. The control used the cream comprising the purified water instead of the unripe Citrus unshiu fruit extract or synephrine.\nThe effect improving atopy was determined by using Eczema Area Severity Index (EASI) score, the determination criterion was set as 5 for the case that there is no improvement of atopy, and 0 for the case that there are many improvements of atopy and the relative values were compared."}, "eotaxin-1 mRNA": {"system": "eotaxin-1 mRNA", "experiment": "eotaxin-1 mRNA expression by quantitative Real-time PCR in IL-4 treated fibroblast", "format": "cell-based, human", "settings": "10, 100 and 200 μM synephrine; 50 ng/ml IL-4; 24 hours; NIH/3T3", "method": "Human normal fibroblast (human normal fibroblast, NIH/3T3, department of dermatology in Aju University) was inoculated into 24-well microplate with DMEM media to be about 2×10^5 cell per well, and cultured in 5% concentration of CO2 cultivator under 37° C. for 24 hours. And then, it was treated with 1, 10, 100 ppm of unripe Citrus unshiu fruit extract, or 10, 100 and 200 μM of synephrine, respectively and then was treated simultaneously with 50 ng/ml of interleukin-4 (R&D, Minneapolis Minn., IL-4), cultivated for 24 hours to collect cell culture media. After extracting tRNA from the collected cells, a complementary DNA (cDNA) was synthesized based on the extracted tRNA and then, a quantitative Real-time PCR was performed by using the synthesized complementary DNA as a template to determine the degree of expression for mRNA of eotaxin-1. The results are represented in FIG. 3."}, "STAT6 [3]": {"system": "STAT6", "experiment": "STAT6 phosphorylation by Western blot in IL-4 treated fibroblast", "format": "cell-based, human", "settings": "10, 100, 200 ppm synephrine for 60 minutes, then 50 ng/ml IL-4 for 20 minutes; NIH/3T3", "method": "Human normal fibroblast (human normal fibroblast, NIH/3T3, department of dermatology in Aju University) was inoculated into 24-well microplate with DMEM media so as to be about 2×10^5 cells per well, and cultured in 5% concentration of CO2 cultivator under the condition of 37° C. for 24 hours. And then, it was treated with 10, 100, 200 ppm of synephrine for 60 minutes, respectively and then 50 ng/ml of IL-4 was treated to cultivate for 20 minutes. Then, the cells were collected to dissolve and then determine the degree of phosphorylation inhibition of STAT6 through Western blot. The results are represented in FIG. 3."}, "eotaxin-1 [4]": {"system": "eotaxin-1", "experiment": "extracellular secretion of eotaxin-1 by ELISA in IL-4 treated fibroblast", "format": "cell-based, human", "settings": "10, 100 and 200 μM synephrine; 50 ng/ml IL-4; 24 hours; NIH/3T3", "method": "Human normal fibroblast (human normal fibroblast, NIH/3T3, department of dermatology in Aju University) was inoculated into 24-well microplate with DMEM media so as to be about 2×10^5 cells per well, and cultured in 5% concentration of CO2 cultivator under the condition of 37° C. for 24 hours. And then, it was treated with 1, 10, 100 ppm of unripe Citrus unshiu fruit extract, or 10, 100 and 200 μM of synephrine, respectively and then was treated simultaneously with 50 ng/ml of interleukin-4 (R&D, Minneapolis Minn., IL-4), cultivated for 24 hours to collect cell culture media. And then, the degree of secretion of eotaxin-1 was determined by using ELISA kit. The results are represented in FIG. 2."}, "eotaxin-1 [5]": {"system": "eotaxin-1", "experiment": "eotaxin-1 reporter gene (luciferase) promoter activity in IL-4 treated fibroblast", "format": "cell-based", "settings": "10, 100 and 200 μM synephrine; 50 ng/ml IL-4; 24 hours; NIH/3T3", "method": "Human normal fibroblast (human normal fibroblast, NIH/3T3, department of dermatology in Aju University) was transformed by inserting Eotaxin-1 reporter gene into it with superfect (Quigen Co.), and then cultured in 5% concentration of CO2 cultivator under the condition of 37° C. for 24 hours. And then, the transformed fibroblast was inoculated into 24-well microplate with DMEM media so as to be about 2×10^5 cells per well, and treated with 1, 10, 100 ppm of unripe Citrus unshiu fruit extract, or 10, 100 and 200 μM of synephrine, respectively and then was treated simultaneously with 50 ng/ml of interleukin-4 (R&D, Minneapolis Minn., IL-4) known to induce eotaxin-1, cultivated for 24 hours to collect cells. Then, the collected cells were crushed and reacted with a substrate of luciferase to determine luminescence, and a promoter activity of eotaxin-1 was determined. The results are represented in FIG. 1."}, "eosinophil": {"system": "eosinophil", "experiment": "eosinophil transmigration in co-cultivation with IL-4 treated fibroblast", "format": "cell-based", "settings": "10, 100 and 200 μM synephrine; 50 ng/ml IL-4; 24 hours", "method": "Human normal fibroblast (human normal fibroblast, NIH/3T3, department of dermatology in Aju University) was inoculated into 24-well co-cultivation plate with DMEM media so as to be about 2×10^5 cells per well, and cultured in 5% concentration of CO2 cultivator under the condition of 37° C. for 24 hours. And then, it was treated with 10, 100 and 200 μM of synephrine for 60 minutes, respectively and then 50 ng/ml of IL-4 was treated to induce the expression of eotaxin-1. Simultaneously, eosinophil was inoculated and cultivated for 24 hours. After the cultivation, the transmigration degree of eosinophil moved through the membrane to bottom of the plate was determined. The determination was measured via a fluorescence staining by using CytoSelect™ 24-Well Cell Migration Assay kit (Cell biolabs, INC., USA). The results are represented in FIG. 6."}}}
{"compound": "CNCC(O)c1ccc(O)cc1", "note": "(stereo not drawn) [synephrine, 4-[1-hydroxy-2-(methylamino)ethyl]phenol]", "values": [{"measurement": "translocation of STAT6 derived by IL-4 into the nucleus", "setting": "STAT6 [1]", "result": "inhibits"}, {"measurement": "skin reaction in the patch test", "setting": "human skin; 10, 150 and 300 ppm, all test groups, all 9 patches", "result": "did not represent the skin reaction"}, {"measurement": "Mean reaction degree", "setting": "human skin; 10 ppm in squalene-based skin external preparation", "result": 0.00}, {"measurement": "Mean reaction degree", "setting": "human skin; 150 ppm in squalene-based skin external preparation", "result": 0.00}, {"measurement": "Mean reaction degree", "setting": "human skin; 300 ppm in squalene-based skin external preparation", "result": 0.00}, {"measurement": "safety to the human skin, judged from mean reaction degree", "setting": "human skin; all tested concentrations, mean reaction degree less than 3 = safe", "result": "safe material"}, {"measurement": "EASI score (5 = no improvement, 0 = many improvements)", "setting": "[2]; 1st week", "result": 2.82}, {"measurement": "EASI score (5 = no improvement, 0 = many improvements)", "setting": "[2]; 2nd week", "result": 1.51}, {"measurement": "EASI score (5 = no improvement, 0 = many improvements)", "setting": "[2]; 4th week", "result": 0.63}, {"measurement": "EASI score compared to the control", "setting": "[2]; cream used for 4 weeks", "result": "reduced compared to the control"}, {"measurement": "expression of mRNA of eotaxin-1 derived by IL-4", "setting": "eotaxin-1 mRNA", "result": "reduced"}, {"measurement": "phosphorylation of STAT6 derived by IL-4", "setting": "STAT6 [3]", "result": "effectively inhibits"}, {"measurement": "extracellular secretion of eotaxin-1 derived by IL-4", "setting": "eotaxin-1 [4]", "result": "reduced"}, {"measurement": "promoter activity of eotaxin-1 derived by IL-4", "setting": "eotaxin-1 [5]", "result": "reduced"}, {"measurement": "movement of eosinophil derived by eotaxin-1 expressed from the treatment of IL-4", "setting": "eosinophil", "result": "inhibits"}]}
